Reference: ChEMBL document CHEMBL5376003, “Structure-Activity Relationship of FL118 Platform Position 7 Versus Position 9-Derived Compounds and Their Mechanism of Action and Antitumor Activity” (J Med Chem, 2023)
The source made the active and inactive calls. The rule behind the calls is not given here.

Columns and labels:
MCF7 = experiment: Growth inhibition of human MCF7 cells incubated for 48 hrs by MTT reagent based ELISA reader analysis; type: functional, cell-based; conditions: MCF7, 48 h
HCT-116 [1] = experiment: Induction of apoptosis in human HCT-116 cells assessed as increase in intracellular ROS level incubated for 48 hrs by DCFH-DA staining based fluorescence microscopy; type: functional, cell-based
PDX27454 [2] = experiment: Antitumor activity against human PDX27454 cells xenografted in SCID mouse model assessed as reduction in tumor volume at 8 mg/kg,po administrated once per week for 3 weeks; type: functional, organism-based
PDX27454 [3] = experiment: Antitumor activity against human PDX27454 cells xenografted in SCID mouse model assessed as reduction in tumor volume at 2 mg/kg,po administrated once per week for 3 weeks; type: functional, organism-based
PDX14244 [4] = experiment: Antitumor activity against human PDX14244 cells xenografted in SCID mouse model assessed as reduction in tumor volume at 2 mg/kg,po administrated once per week for 3 weeks; type: functional, organism-based
HCT-116 [5] = experiment: Growth inhibition of human HCT-116 cells incubated for 48 hrs by MTT reagent based ELISA reader analysis; type: functional, cell-based; conditions: HCT-116, 48 h
A549 = experiment: Growth inhibition of human A549 cells incubated for 48 hrs by MTT reagent based ELISA reader analysis; type: functional, cell-based; conditions: A549, 48 h
HepG2 = experiment: Growth inhibition of human HepG2 cells incubated for 48 hrs by MTT reagent based ELISA reader analysis; type: functional, cell-based; conditions: HepG2, 48 h
PDX14244 [6] = experiment: Antitumor activity against human PDX14244 cells xenografted in SCID mouse model assessed as reduction in tumor volume at 8 mg/kg,po administrated once per week for 3 weeks; type: functional, organism-based
HeLa = experiment: Growth inhibition of human HeLa cells incubated for 48 hrs by MTT reagent based ELISA reader analysis; type: functional, cell-based
[7] = target: T1, DNA topoisomerase 1 (Homo sapiens) (UniProt P11387); experiment: Inhibition of topoisomerase 1 (unknown origin) assessed as relaxation of supercoiled plasmid pBR322 DNA at 25 to 100 uM incubated for 30 mins by ethidium bromide staining based agarose gel electrophoresis; conditions: dose 25-100 µM
T1 sequence (whole entry): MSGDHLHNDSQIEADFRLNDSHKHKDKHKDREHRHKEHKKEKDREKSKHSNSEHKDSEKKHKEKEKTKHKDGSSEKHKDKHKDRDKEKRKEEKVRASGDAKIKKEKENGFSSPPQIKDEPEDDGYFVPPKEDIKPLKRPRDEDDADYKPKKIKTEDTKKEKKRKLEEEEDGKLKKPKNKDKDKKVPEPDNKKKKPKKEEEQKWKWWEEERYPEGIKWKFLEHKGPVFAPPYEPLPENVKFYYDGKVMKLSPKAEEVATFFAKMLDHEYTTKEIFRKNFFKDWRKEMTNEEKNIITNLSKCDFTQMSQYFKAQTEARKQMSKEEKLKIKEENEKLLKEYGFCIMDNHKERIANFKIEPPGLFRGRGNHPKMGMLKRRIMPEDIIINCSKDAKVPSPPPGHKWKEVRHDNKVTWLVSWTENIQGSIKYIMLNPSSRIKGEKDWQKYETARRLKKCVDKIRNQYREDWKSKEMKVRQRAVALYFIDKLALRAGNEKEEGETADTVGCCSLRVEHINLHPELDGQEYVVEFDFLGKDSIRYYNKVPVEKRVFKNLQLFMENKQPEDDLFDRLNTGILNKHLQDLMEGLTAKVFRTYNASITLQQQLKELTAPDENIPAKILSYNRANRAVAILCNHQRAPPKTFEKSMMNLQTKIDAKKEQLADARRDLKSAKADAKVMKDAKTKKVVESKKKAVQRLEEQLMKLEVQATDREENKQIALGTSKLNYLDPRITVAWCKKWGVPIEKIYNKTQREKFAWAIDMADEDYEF

HCT-116 [8] = experiment: Induction of cell cycle arrest in human HCT-116 cells assessed as accumulation of cells at S phase at 2.5 to 10 nM incubated for 48 hrs by Annexin V-FITC/PI staining based flow cytometry assay; type: functional; conditions: dose 2.5-10 nM
HCT-116 [9] = experiment: Induction of apoptosis in human HCT-116 cells assessed as downregulation of MCL-1 protein expression incubated for 48 hrs by Western blotting analysis; type: functional, cell-based
HCT-116 [10] = experiment: Inhibition of cell migration in human HCT-116 cells assessed as intercellular distance at 5 nM incubated for 48 hrs by inverted phase-contrast microscopic analysis; type: functional
HCT-116 [11] = experiment: Inhibition of cell migration in human HCT-116 cells assessed as scratch repair rate at 5 nM incubated for 48 hrs by inverted phase-contrast microscopic analysis; type: functional; parameters: scale not given: the % may be the effect or the level left
HCT-116 [12] = experiment: Induction of apoptosis in human HCT-116 cells assessed as increase in intracellular ROS level at 10 to 1000 nM incubated for 4 to 8 hrs by DCFH-DA staining based fluorescence microscopy; type: functional, cell-based; conditions: dose 10-1000 nM, time 4-8 hrs
HCT-116 [13] = experiment: Inhibition of cell migration in human HCT-116 cells assessed as intercellular distance at 5 nM incubated for 24 hrs by inverted phase-contrast microscopic analysis (reference value: 1 +/- 0.2 millimeter); type: functional
HCT-116 [14] = experiment: Induction of apoptosis in human HCT-116 cells at 2.5 to 10 nM incubated for 48 hrs by Annexin V-FITC/PI staining based flow cytometry assay; type: functional, cell-based; conditions: dose 2.5-10 nM
HCT-116 [15] = experiment: Induction of apoptosis in human HCT-116 cells assessed as downregulation of XIAP protein expression incubated for 48 hrs by Western blotting analysis; type: functional, cell-based
HCT-116 [16] = experiment: Induction of cell cycle arrest in human HCT-116 cells assessed as accumulation of cells at G2/M phase at 2.5 to 10 nM incubated for 48 hrs by Annexin V-FITC/PI staining based flow cytometry assay; type: functional; conditions: dose 2.5-10 nM
HCT-116 [17] = experiment: Induction of apoptosis in human HCT-116 cells assessed as downregulation of Survivin protein expression incubated for 48 hrs by Western blotting analysis; type: functional, cell-based
HCT-116 [18] = experiment: Inhibition of cell migration in human HCT-116 cells assessed as intercellular distance at 5 nM by inverted phase-contrast microscopic analysis (reference value: 2.5 +/- 0.7 millimeter); type: functional
HCT-116 [19] = experiment: Induction of apoptosis in human HCT-116 cells assessed as increase in intracellular ROS level at 10 to 1000 nM incubated for 12 hrs by DCFH-DA staining based fluorescence microscopy; type: functional, cell-based; conditions: dose 10-1000 nM

| Compound | IC50 (MCF7) | IC50 (HCT-116 [5]) | IC50 (A549) | IC50 (HepG2) | IC50 (HeLa) | other results |
| --- | --- | --- | --- | --- | --- | --- |
| CC[C@@]1(O)C(=O)OCc2c1cc1n(c2=O)Cc2cc3c(-c4ccc(OC(C)C)cc4)c4c(cc3nc2-1)OCO4 | 600 nM | 948 nM | 142 nM | 910 nM | 152 nM | Activity (HCT-116 [1]): Dose-Dependent Effect; Activity (PDX27454 [2]): Active; Activity (PDX27454 [3]): Active; Activity (PDX14244 [4]): Active; Activity (PDX14244 [6]): Active |
| CC[C@@]1(O)C(=O)OCc2c1cc1n(c2=O)Cc2cc3c(-c4cccc(C)c4)c4c(cc3nc2-1)OCO4 | 132 nM | 478 nM | > 1000 nM | 200 nM | 32.6 nM | Activity (PDX27454 [2]): Active; Activity (PDX27454 [3]): Active; Activity (PDX14244 [4]): Active; Activity (PDX14244 [6]): Active |
| CC[C@@]1(O)C(=O)OCc2c1cc1n(c2=O)Cc2c-1nc1cc3c(cc1c2-c1ccc(C(F)(F)F)cc1)OCO3 | 47.1 nM | 40.8 nM | 78.9 nM | 86.6 nM | 49.5 nM | Topoisomerase 1 inhibition [7]: Active; Activity (HCT-116 [1]): Dose-Dependent Effect; Activity (HCT-116 [8]): Active; Activity (PDX27454 [2]): Active; Activity (HCT-116 [9]): Active; Activity (HCT-116 [10]): 0.8 mm; Activity (PDX27454 [3]): Active; Activity (HCT-116 [11]): 69.2%; Activity (HCT-116 [12]): Active; Activity (PDX14244 [4]): Active; Activity (HCT-116 [13]): 1.5 mm; Activity (HCT-116 [14]): Active; Activity (HCT-116 [15]): Active; Activity (HCT-116 [16]): Active; Activity (HCT-116 [17]): Active; Activity (HCT-116 [18]): 2.6 mm; Activity (PDX14244 [6]): Active; Activity (HCT-116 [19]): Active |
| CC[C@@]1(O)C(=O)OCc2c1cc1n(c2=O)Cc2cc3c(-c4ccc(SC)cc4)c4c(cc3nc2-1)OCO4 | 158 nM | 582 nM | 220 nM | 303 nM | 161 nM | – |
| CC[C@@]1(O)C(=O)OCc2c1cc1n(c2=O)Cc2cc3c(-c4cc(C)cc(C)c4)c4c(cc3nc2-1)OCO4 | 160 nM | 709 nM | 107 nM | 292 nM | 115 nM | – |
| CCOc1ccc(-c2c3c(cc4nc5c(cc24)Cn2c-5cc4c(c2=O)COC(=O)[C@]4(O)CC)OCO3)cc1 | > 1000 nM | 176 nM | 296 nM | > 1000 nM | > 1000 nM | – |
| CCCCc1ccc(-c2c3c(cc4nc5c(cc24)Cn2c-5cc4c(c2=O)COC(=O)[C@]4(O)CC)OCO3)cc1 | > 1000 nM | 759 nM | 541 nM | > 1000 nM | > 1000 nM | – |
| CC[C@@]1(O)C(=O)OCc2c1cc1n(c2=O)Cc2cc3c(-c4ccc(C(C)(C)C)cc4)c4c(cc3nc2-1)OCO4 | > 1000 nM | > 1000 nM | 910 nM | > 1000 nM | 674 nM | – |
| CCOc1ccc(-c2c3c(nc4cc5c(cc24)OCO5)-c2cc4c(c(=O)n2C3)COC(=O)[C@]4(O)CC)cc1 | 64 nM | 226 nM | 61.2 nM | > 1000 nM | 63.2 nM | – |
| CC[C@@]1(O)C(=O)OCc2c1cc1n(c2=O)Cc2cc3c(-c4ccc([Si](C)(C)C)cc4)c4c(cc3nc2-1)OCO4 | 104 nM | 253 nM | 85.8 nM | 176 nM | 160 nM | Activity (HCT-116 [1]): Dose-Dependent Effect; Activity (PDX27454 [2]): Active; Activity (PDX27454 [3]): Active; Activity (PDX14244 [4]): Active; Activity (PDX14244 [6]): Active |
| CCCc1ccc(-c2c3c(cc4nc5c(cc24)Cn2c-5cc4c(c2=O)COC(=O)[C@]4(O)CC)OCO3)cc1 | > 1000 nM | 951 nM | 423 nM | > 1000 nM | > 1000 nM | – |
| CCCc1ccc(-c2c3c(nc4cc5c(cc24)OCO5)-c2cc4c(c(=O)n2C3)COC(=O)[C@]4(O)CC)cc1 | 64 nM | 118 nM | 51 nM | 827 nM | 59.4 nM | – |
| CC[C@@]1(O)C(=O)OCc2c1cc1n(c2=O)Cc2cc3c(-c4ccc(C(F)(F)F)cc4)c4c(cc3nc2-1)OCO4 | – | 934 nM | 803 nM | > 1000 nM | > 1000 nM | Activity (HCT-116 [1]): Dose-Dependent Effect |
| CCSc1ccc(-c2c3c(nc4cc5c(cc24)OCO5)-c2cc4c(c(=O)n2C3)COC(=O)[C@]4(O)CC)cc1 | 72.5 nM | 91.3 nM | 29.1 nM | 300 nM | 95.8 nM | – |
